Source: PubChem BioAssay AID2060505 (Molecular Pharmacology Branch, DTP, NCI, 2025)

Test system: 633275-114-R-J1-PDC complex spheroids, viability
Assay: Anticancer human tumor 633275-114-R-J1-PDC patient-derived endometrial adenocarcinoma cell line growth inhibition [GQUAD]
Conditions: for IC50: curve of first compound; for viability, T/C: stronger effect = lower value
Excerpt: DNA G-quadruplex Stabilizer Agents in Combinations in Complex Spheroids
A high-throughput screen of multi-cell type tumor spheroids was designed to identify active combinations of DNA G-quadruplex stabilizer agents and targeted small molecules. Complex spheroids include a stromal component modeled by human endothelial cells (HUVEC) and fibroblasts modeled by human mesenchymal stem cells (MSCs). The concentration ranges selected for each drug and investigational agent were based upon clinically achievable concentrations if the clinical Cmax of the agent was known.
Compounds. The drugs and investigational agents: pidnarulex (CX-5461; NSC782164), APTO-253 (NSC789042), BRACO-19 (NSC847499), peposertib (NSC802822), ceralasertib (NSC780249), elimusertib (NSC800525), camonsertib (NSC841442), AZD-1390 (NSC803789), olaparib (NSC753686), talazoparib (NSC767125), ART-558 (NSC835418), sotorasib (NSC818433), MRTX-1133 (NSC836407), SN-38 (NSC673596), topotecan (NSC609699), etoposide (NSC141540), doxorubicin (NSC123127), gemcitabine (NSC613327), 5-fluorouracil (NSC19893), paclitaxel (NSC125973), vemurafenib (NSC761431), panobinostat (NSC761190), R-306465 (JNJ-16241199; NSC773264), adavosertib (NSC754352), TP-3654 (NSC805149), carboplatin (NSC241240), KSQ-4279 (NSC840948), and staurosporine (NSC755774) were obtained from the National Cancer Institute (NCI) Developmental Therapeutics Program Chemical Repository (34). The FDA-approved anticancer drug set is available from the NCI Developmental Therapeutics Program. […] The stock solutions were prepared in dimethyl sulfoxide (DMSO, Sigma-Aldrich, St. Louis, MO, cat. D2650) at 800-fold the tested concentration and stored at -70 degrees C prior to their use. All drugs and investigational agents were tested over a range starting from a high concentration at or near the clinical Cmax and decreasing in half-log increments. If the clinical Cmax for an agent had not been determined, the highest concentration tested was 10 microM.
2.3 Cell Culture. All cells were maintained in an incubator at 37 degrees C and 5% CO2 with 95% humidity. The PDC lines were cultured according to standard operating procedures established by the NCI PDMR. All PDCs were thawed and cultured in Matrigel-coated flasks prepared with a working solution of 1X Ham's F-12 nutrient mix, without supplementation (Invitrogen, cat. 11765054), 100 U/mL penicillin-streptomycin (Invitrogen, cat. 15140122), and 2.5% Matrigel (Corning Inc., cat. 354248) for the first three passages. The 857933-349-R-J2-PDC line was cultured in 6C/Colon 1B media, which includes advanced DMEM/F-12 (Thermo Fisher Scientific, cat. 12634028), 10 mM HEPES (Thermo Fisher Scientific, cat. 15630080), 1X GlutaMAX supplement (Thermo Fisher Scientific, cat. 35050061), 0.1 mg/mL primocin (InvivoGen, cat. ant-pm-2), 10% defined fetal bovine serum, heat inactivated (HyClone Laboratories Inc., cat. SH30070.03HI), 50% L-WRN conditioned media (ATCC, cat. CRL-3276), 1.25 mM N-Acetyl-L-cysteine (Sigma-Aldrich, cat. A9165), 10 mM nicotinamide (Sigma-Aldrich, cat. N0636), 1X B-27 supplement (Thermo Fisher Scientific, cat. 17504044), 1X N-2 supplement (Thermo Fisher Scientific, cat. 17502048), 10 microM Y-27632 dihydrochloride (Tocris Bioscience, cat. 1254), and 50 ng/mL human EGF recombinant protein (Thermo Fisher Scientific, cat. PHG0311). The 485176-168-R4-J1-PDC line was cultured in Panc media, which includes all 6C/Colon 1B media components plus 100 ng/mL human FGF-10 (Thermo Fisher Scientific, cat. 100-26), 500 nM SB-431542 (Selleckchem, cat. S1067), and gastrin (Tocris, cat. 3006).
[…]

[1] = second compound 0.0316 µM, first compound 0.0316 µM
[2] = second compound 0.0316 µM, first compound 0.316 µM
[3] = second compound 0.1 µM, first compound 0.0316 µM
[4] = second compound 0.1 µM, first compound 0.316 µM
[5] = second compound 0.316 µM, first compound 0.0316 µM
[6] = second compound 0.316 µM, first compound 0.316 µM
[7] = second compound 1 µM, first compound 0.0316 µM
[8] = second compound 1 µM, first compound 0.316 µM
[9] = second compound 3.16 µM, first compound 0.0316 µM
[10] = second compound 3.16 µM, first compound 0.316 µM
[11] = second compound 10 µM, first compound 0.0316 µM
[12] = second compound 10 µM, first compound 0.316 µM
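Note: spheroids exposed to the agents for seven days.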
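Throughout, for viability, T/C: percent of DMSO vehicle control viability which is 100%.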

`CCc1c2c(nc3ccc(O)cc13)-c1cc3c(c(=O)n1C2)COC(=O)[C@]3(O)CC` + CN(C)c1ccc(Nc2c3ccc(NC(=O)CCN4CCCC4)cc3nc3cc(NC(=O)CCN4CCCC4)ccc23)cc1 gave an IC50 (second compound 0.0316 µM) of 2.92 nM, an IC50 (second compound 0.1 µM) of 2.72 nM and an IC50 (second compound 0.316 µM) of 3.31 nM. For the same compound, the IC50 (second compound 1 µM) was 2.76 nM, the IC50 (second compound 3.16 µM) was 2.01 nM and the IC50 (second compound 10 µM) was < 0.999 nM. It also gave a viability, T/C (second compound 0.0316 µM, first compound 0.000999 µM) of 82.3%, a viability, T/C (second compound 0.0316 µM, first compound 0.00316 µM) of 46.1% and a viability, T/C (second compound 0.0316 µM, first compound 0.00999 µM) of 34.6%. The viability, T/C [1] was 35.3%, the viability, T/C (second compound 0.0316 µM, first compound 0.0999 µM) was 26.1% and the viability, T/C [2] was 25.2%. For the same compound, the viability, T/C (second compound 0.1 µM, first compound 0.000999 µM) was 77.6%, the viability, T/C (second compound 0.1 µM, first compound 0.00316 µM) was 44.2% and the viability, T/C (second compound 0.1 µM, first compound 0.00999 µM) was 36.1%. For the same compound, the viability, T/C [3] was 32%, the viability, T/C (second compound 0.1 µM, first compound 0.0999 µM) was 30.2% and the viability, T/C [4] was 25.6%. It also gave a viability, T/C (second compound 0.316 µM, first compound 0.000999 µM) of 73%, a viability, T/C (second compound 0.316 µM, first compound 0.00316 µM) of 48.2% and a viability, T/C (second compound 0.316 µM, first compound 0.00999 µM) of 38.1%. The viability, T/C [5] was 35.3%, the viability, T/C (second compound 0.316 µM, first compound 0.0999 µM) was 29.4% and the viability, T/C [6] was 23.9%. It also gave a viability, T/C (second compound 1 µM, first compound 0.000999 µM) of 68.4%, a viability, T/C (second compound 1 µM, first compound 0.00316 µM) of 43.1% and a viability, T/C (second compound 1 µM, first compound 0.00999 µM) of 40.3%. For the same compound, the viability, T/C [7] was 29.3%, the viability, T/C (second compound 1 µM, first compound 0.0999 µM) was 23.9% and the viability, T/C [8] was 21.6%. For the same compound, the viability, T/C (second compound 3.16 µM, first compound 0.000999 µM) was 60.8%, the viability, T/C (second compound 3.16 µM, first compound 0.00316 µM) was 41.8% and the viability, T/C (second compound 3.16 µM, first compound 0.00999 µM) was 34.9%. The viability, T/C [9] was 28.1%, the viability, T/C (second compound 3.16 µM, first compound 0.0999 µM) was 23.5% and the viability, T/C [10] was 22.6%. For the same compound, the viability, T/C (second compound 10 µM, first compound 0.000999 µM) was 31%, the viability, T/C (second compound 10 µM, first compound 0.00316 µM) was 16% and the viability, T/C (second compound 10 µM, first compound 0.00999 µM) was 15.7%. The viability, T/C [11] was 13.9%, the viability, T/C (second compound 10 µM, first compound 0.0999 µM) was 15.6% and the viability, T/C [12] was 11.5%.
In the case of `Cc1cccc(N(C)C(=O)C2C(O)CCN2c2nc(C)cc(C(F)(F)F)c2C#N)c1` (centres undefined) + CN(C)c1ccc(Nc2c3ccc(NC(=O)CCN4CCCC4)cc3nc3cc(NC(=O)CCN4CCCC4)ccc23)cc1, the IC50 (second compound 0.0316 µM) is reported as > 10000 nM, the IC50 (second compound 0.1 µM) is reported as > 10000 nM and the IC50 (second compound 0.316 µM) is reported as > 10000 nM. For the same compound, the IC50 (second compound 1 µM) was > 10000 nM, the IC50 (second compound 3.16 µM) was 8550 nM and the IC50 (second compound 10 µM) was < 31.6 nM. The viability, T/C [1] was 102%, the viability, T/C (second compound 0.0316 µM, first compound 0.1 µM) was 99.2% and the viability, T/C [2] was 105%. It also gave a viability, T/C (second compound 0.0316 µM, first compound 1 µM) of 105%, a viability, T/C (second compound 0.0316 µM, first compound 3.16 µM) of 96.3% and a viability, T/C (second compound 0.0316 µM, first compound 10 µM) of 104%. It also gave a viability, T/C [3] of 107%, a viability, T/C (second compound 0.1 µM, first compound 0.1 µM) of 103% and a viability, T/C [4] of 104%. It also gave a viability, T/C (second compound 0.1 µM, first compound 1 µM) of 99.5%, a viability, T/C (second compound 0.1 µM, first compound 3.16 µM) of 101% and a viability, T/C (second compound 0.1 µM, first compound 10 µM) of 97.8%. For the same compound, the viability, T/C [5] was 99.3%, the viability, T/C (second compound 0.316 µM, first compound 0.1 µM) was 94.4% and the viability, T/C [6] was 101%. It also gave a viability, T/C (second compound 0.316 µM, first compound 1 µM) of 91%, a viability, T/C (second compound 0.316 µM, first compound 3.16 µM) of 94% and a viability, T/C (second compound 0.316 µM, first compound 10 µM) of 85.3%. For the same compound, the viability, T/C [7] was 96.2%, the viability, T/C (second compound 1 µM, first compound 0.1 µM) was 96.6% and the viability, T/C [8] was 97.6%. It also gave a viability, T/C (second compound 1 µM, first compound 1 µM) of 99.5%, a viability, T/C (second compound 1 µM, first compound 3.16 µM) of 94.6% and a viability, T/C (second compound 1 µM, first compound 10 µM) of 87.1%. For the same compound, the viability, T/C [9] was 88.8%, the viability, T/C (second compound 3.16 µM, first compound 0.1 µM) was 84.8% and the viability, T/C [10] was 95.5%. For the same compound, the viability, T/C (second compound 3.16 µM, first compound 1 µM) was 82.4%, the viability, T/C (second compound 3.16 µM, first compound 3.16 µM) was 69.2% and the viability, T/C (second compound 3.16 µM, first compound 10 µM) was 47%. It also gave a viability, T/C [11] of 30.5%, a viability, T/C (second compound 10 µM, first compound 0.1 µM) of 34.7% and a viability, T/C [12] of 28%. It also gave a viability, T/C (second compound 10 µM, first compound 1 µM) of 29.6%, a viability, T/C (second compound 10 µM, first compound 3.16 µM) of 28.2% and a viability, T/C (second compound 10 µM, first compound 10 µM) of 16.1%.
